Source: patent publication US20110002843A1, “METHOD OF DETECTING MYOCARDIAL DYSFUNCTION IN PATIENTS HAVING A HISTORY OF ASTHMA OR BRONCHOSPASM” (priority 2005, published 2011)
Like-named read-outs stand apart in the source and are kept apart here.

What was measured:
[1] = Single-dose pharmacokinetics, safety and tolerability of 10-minute intravenous infusion in healthy volunteers; assay type: in vivo, human; details: for Cmax / Tmax / AUC(0-inf) / AUC(0-t) / clearance / half-life / Vd: human, plasma; for Cmax: read-out: Cmax, mean (SD); for AUC(0-inf): read-out: AUC0-∞, mean (SD) (converted); for AUC(0-t): read-out: AUClast, mean (SD) (converted); for Vd: read-out: Vz, mean (SD)
Experimental: Subjects: This study was conducted at the New Orleans Center for Clinical Research, New Orleans, La., in accordance with US Good Clinical Practice guidelines. Subjects were required to be in generally good health as determined by physical examination and laboratory testing, as well as assessment of vital signs. Exclusion criteria included testing positive on drug screening (drugs of abuse); ingesting caffeine, alcohol, or medication within 24 hours of study entry; or receiving an investigational drug with 30 days of study entry. Women of childbearing potential and men whose female partners were not using an acceptable contraceptive method were excluded. Other exclusion criteria included subjects with known postural hypotension, resting supine systolic blood pressure of 90 mmHg or lower, diastolic blood pressure of 60 mmHg or lower and heart rate of 90 beats/min or greater; history of human immunodeficiency virus infection; positive test result for hepatitis B surface antigen or hepatitis C antibody; and any clinically relevant condition that could potentially confound the analysis or present a safety risk.
Study Methods: The study was designed as a single-center, open-label, nonrandomized, intravenous dose-escalation study in 4 cohorts (n=6 each) of healthy volunteers. The protocol was approved by the institutional review board; all subjects gave written informed consent. Subjects from each cohort were to receive 3 rising doses of binodenoson administered via intravenous infusion over a period of 10 minutes, at a rate not to exceed 6 μg/kg/min. Although the successive doses of binodenoson were administered on the same study day, the washout period between doses was at least 2 hours. Subjects in cohort 1 received consecutive binodenoson doses of 0.1, 0.2 and 0.4 μg/kg; cohort 2 received 0.6, 1 and 2 μg/kg; cohort 3 received 2, 3 and 4 μg/kg; and cohort 4 received 4, 5 and 6 μg/kg.
Serial vital sign monitoring of heart rate, supine systolic blood pressure and diastolic blood pressure was done at screening and during each dosing phase within 10 minutes before infusion, at 2, 4, 6, 8 and 10 minutes during infusion and at 2, 5, 7.5, 10, 15, 20, 30, 45, 60, 90 and 120 minutes after infusion. A 12-lead electrocardiogram (ECG) was obtained at screening and the end of the study. The ECG was monitored via telemetry during the treatment phase, including during the infusions. Monitoring was initiated within 1 hour before dosing and continued until 24 hours after completion of the last dose.
A total of 40 to 42 blood samples were collected during the treatment phase for quantitation of binodenoson in plasma. Before dosing, a polyethylene catheter was inserted into a vein of the forearm contralateral to the infusion site. Blood samples (5 mL) were drawn into prechilled Vacutainer tubes (BD, Franklin Lakes, N.J.) just before infusion (−1 minute), at the midpoint (5 minutes) and end (10 minutes) of infusion and at 2, 5, 7.5, 10, 15, 20, 30, 45, 60, 90 and 120 minutes after the end of infusion. Plasma was separated from cellular material by centrifugation under refrigeration (4° C.) at 4000 rpm for 10 minutes and then stored in cryotubes at −80° C. until analyzed. The total amount of blood taken during the intensive sampling period was approximately 200 mL. Plasma concentrations of binodenoson were determined by a validated high-performance liquid chromatography-mass spectrometry (LC/MS/MS) assay at Phoenix International, Inc. (Montreal, Quebec, Canada).
Pharmacokinetic parameters were derived for each subject's plasma binodenoson concentration-time profile for each binodenoson infusion by use of noncompartmental methods with the statistical software program SAS (SAS Institute, Cary, N.C.). The peak concentration (Cmax) and corresponding time to (Cmax) (tmax) were derived by observation. […]

cytochrome P450 enzymes = experiment: In vitro inhibition of cytochrome P450 enzymes; assay type: in vitro ADME
[2] = 0.4 ug/kg, 0.4 μg/kg iv over 10 minutes
[3] = 0.6 ug/kg, 0.6 μg/kg iv over 10 minutes
[4] = 1 ug/kg, 1 μg/kg iv over 10 minutes
[5] = 2 ug/kg, 2 μg/kg iv over 10 minutes
[6] = 3 ug/kg, 3 μg/kg iv over 10 minutes
[7] = 4 ug/kg, 4 μg/kg iv over 10 minutes
[8] = 6 ug/kg, 6 μg/kg iv over 10 minutes
[9] = 8 ug/kg, 8 μg/kg iv over 10 minutes

**Q.** Which results are given for `Nc1nc(N/N=C/C2CCCCC2)nc2c1ncn2[C@@H]1O[C@H](CO)[C@@H](O)[C@H]1O` (stereo in doubt) [Binodenoson, 2-{2-[(Cyclohexyl)methylene]hydrazino}adenosine]?
**A.** maximum increase in heart rate ([1]; 1 μg/kg dose): 29 beats/min; mean maximal increase in systolic blood pressure from baseline ([1]; 1 μg/kg dose): 8.8 mmHg; maximum increase in heart rate ([1]; 6 μg/kg dose): 66.3 beats/min; mean maximal increase in systolic blood pressure from baseline ([1]; 6 μg/kg dose): 27.9 mmHg; volunteers reporting at least 1 AE ([1]; 21 of 24 volunteers): 83%; AEs judged related to administration of binodenoson ([1]; all doses): 99%; AEs of mild severity ([1]; all doses): 82%; AEs of moderate severity ([1]; all doses): 17%; AEs that began during drug infusions and resolved within 30 minutes of onset ([1]; all doses): 75%; ECG changes ([1]; all doses): no clinically significant ECG changes; serious AEs ([1]; all doses): no serious AEs; frequency of dizziness ([1]; doses of 1 μg/kg or lower): 0%; frequency of headache ([1]; doses of 1 μg/kg or lower): 7%; frequency of nausea/vomiting ([1]; doses of 1 μg/kg or lower): 0%; frequency of paresthesia ([1]; doses of 1 μg/kg or lower): 3%; frequency of vasodilation ([1]; doses of 1 μg/kg or lower): 14%; frequency of dizziness ([1]; doses of 2 μg/kg or greater): 24%; frequency of headache ([1]; doses of 2 μg/kg or greater): 60%; frequency of nausea/vomiting ([1]; doses of 2 μg/kg or greater): 49%; frequency of paresthesia ([1]; doses of 2 μg/kg or greater): 19%; frequency of vasodilation ([1]; doses of 2 μg/kg or greater): 54%; tolerability ([1]; doses ranging from 0.4 μg/kg to 6 μg/kg): well tolerated; Cmax [1, 2]: 0.9 ng/mL; Cmax [1, 3]: 1.1 ng/mL; Cmax [1, 4]: 2.1 ng/mL; Cmax [1, 5]: 3.9 ng/mL; Cmax [1, 6]: 6.2 ng/mL; Cmax [1, 7]: 8.7 ng/mL; Cmax [1, 8]: 12.5 ng/mL; Cmax [1, 9]: 12.1 ng/mL; Tmax [1, 2]: 10 min; AUC(0-inf) [1, 2]: 0.207 ng·h/mL; AUC(0-t) [1, 2]: 0.15 ng·h/mL; clearance ([1]; 0.4 ug/kg, 0.4 μg/kg iv over 10 minutes, read-out: CL, mean (SD)): 2 L/h/kg; half-life ([1]; 0.4 ug/kg, 0.4 μg/kg iv over 10 minutes, read-out: T1/2, mean (SD)): 8.8 min; Vd [1, 2]: 0.39 L/kg; Tmax [1, 3]: 7.5 min; AUC(0-inf) [1, 3]: 0.353 ng·h/mL; AUC(0-t) [1, 3]: 0.208 ng·h/mL; clearance ([1]; 0.6 ug/kg, 0.6 μg/kg iv over 10 minutes, read-out: CL, mean (SD)): 1.73 L/h/kg; half-life ([1]; 0.6 ug/kg, 0.6 μg/kg iv over 10 minutes, read-out: T1/2, mean (SD)): 11.7 min; Vd [1, 3]: 0.46 L/kg; Tmax [1, 4]: 10 min; AUC(0-inf) [1, 4]: 0.465 ng·h/mL; AUC(0-t) [1, 4]: 0.415 ng·h/mL; clearance ([1]; 1 ug/kg, 1 μg/kg iv over 10 minutes, read-out: CL, mean (SD)): 2.3 L/h/kg; half-life ([1]; 1 ug/kg, 1 μg/kg iv over 10 minutes, read-out: T1/2, mean (SD)): 7.4 min; Vd [1, 4]: 0.4 L/kg; Tmax [1, 5]: 10 min; AUC(0-inf) [1, 5]: 0.928 ng·h/mL; AUC(0-t) [1, 5]: 0.855 ng·h/mL; clearance ([1]; 2 ug/kg, 2 μg/kg iv over 10 minutes, read-out: CL, mean (SD)): 1.98 L/h/kg; half-life ([1]; 2 ug/kg, 2 μg/kg iv over 10 minutes, read-out: T1/2, mean (SD)): 10 min; Vd [1, 5]: 0.48 L/kg; Tmax [1, 6]: 9.5 min; AUC(0-inf) [1, 6]: 1.42 ng·h/mL; AUC(0-t) [1, 6]: 1.31 ng·h/mL; clearance ([1]; 3 ug/kg, 3 μg/kg iv over 10 minutes, read-out: CL, mean (SD)): 2.12 L/h/kg; half-life ([1]; 3 ug/kg, 3 μg/kg iv over 10 minutes, read-out: T1/2, mean (SD)): 12.8 min; Vd [1, 6]: 0.65 L/kg; Tmax [1, 7]: 10 min; AUC(0-inf) [1, 7]: 2.03 ng·h/mL; AUC(0-t) [1, 7]: 1.93 ng·h/mL; clearance ([1]; 4 ug/kg, 4 μg/kg iv over 10 minutes, read-out: CL, mean (SD)): 2.39 L/h/kg; half-life ([1]; 4 ug/kg, 4 μg/kg iv over 10 minutes, read-out: T1/2, mean (SD)): 13 min; Vd [1, 7]: 0.69 L/kg; Tmax [1, 8]: 9 min; AUC(0-inf) [1, 8]: 2.32 ng·h/mL; AUC(0-t) [1, 8]: 2.22 ng·h/mL; clearance ([1]; 6 ug/kg, 6 μg/kg iv over 10 minutes, read-out: CL, mean (SD)): 2.03 L/h/kg; half-life ([1]; 6 ug/kg, 6 μg/kg iv over 10 minutes, read-out: T1/2, mean (SD)): 14.9 min; Vd [1, 8]: 0.7 L/kg; Tmax [1, 9]: 10.5 min; AUC(0-inf) [1, 9]: 2.72 ng·h/mL; AUC(0-t) [1, 9]: 2.6 ng·h/mL; clearance ([1]; 8 ug/kg, 8 μg/kg iv over 10 minutes, read-out: CL, mean (SD)): 2.37 L/h/kg; half-life ([1]; 8 ug/kg, 8 μg/kg iv over 10 minutes, read-out: T1/2, mean (SD)): 12.3 min; Vd [1, 9]: 0.68 L/kg; clearance ([1]; intravenous, across all dose levels, read-out: mean systemic clearance): 2.06 ± 0.45 L/h/kg; half-life ([1]; intravenous, across all doses, read-out: terminal half-life, harmonic mean): 10 ± 4 min; relationship between clearance (CL) and body weight (BW) ([1]; linear mixed-effect model, p=0.004): CL=−0.19+0.039 BW; AUC0-t as share of total AUC0-∞ ([1]; trapezoidal rule): greater than 80%; inhibition of cytochrome P450 enzymes (cytochrome P450 enzymes): no significant inhibition
